{
  "source": "patent US8198307B2",
  "about": "“Imidazole derivatives having aryl piperidine substituent, method for preparation thereof and pharmaceutical compositions containing same” (Korea Research Institute of Chemical Technology, priority 2007, dated 2012)",
  "biological_target": "T1, MCH R1 (melanine-concentrating hormone receptor-1) (Homo sapiens, UniProt Q99705)",
  "T1 construct": "purchased Euroscreen, Gosselies, Belgium",
  "T1 sequence (Q99705 whole entry, species assumed)": "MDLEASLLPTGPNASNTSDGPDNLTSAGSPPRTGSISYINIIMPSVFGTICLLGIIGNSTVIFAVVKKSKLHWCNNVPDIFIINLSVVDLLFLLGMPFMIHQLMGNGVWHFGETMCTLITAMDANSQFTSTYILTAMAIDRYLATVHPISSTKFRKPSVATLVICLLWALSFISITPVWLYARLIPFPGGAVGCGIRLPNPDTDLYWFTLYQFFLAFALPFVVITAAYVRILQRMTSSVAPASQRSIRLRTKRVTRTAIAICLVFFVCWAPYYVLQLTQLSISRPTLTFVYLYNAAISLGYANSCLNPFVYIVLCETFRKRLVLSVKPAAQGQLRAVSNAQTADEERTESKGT",
  "assay": "Inhibitory effects on MCH R1 binding (Eu-MCH time-resolved fluorescence binding assay)",
  "settings": "concentration inhibiting the binding of MCH (Eu-MCH, 2 nM) to MCH R1 by 50% in vitro; TRF readout; test range 1 nM to 10 μM; read-out: IC50",
  "in_short": "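Receptor membranes were incubated 90 min at room temperature with 2 nM Eu-MCH and test compound (1 nM–10 μM final) in 25 mM HEPES pH 7.4, 5 mM MgCl2, 1 mM CaCl2, 0.5% BSA, then filter-washed. Nonspecific binding was defined with 0.5 μM MCH. Time-resolved fluorescence (ex 340/em 615 nm) gave percent inhibition of specific binding.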",
  "data": [
    {"compound": "CC(=O)Nc1cccc(C2CCN(CCCn3c(-c4ccc(Cl)cc4)nc4ccc(C(N)=O)cc43)CC2)c1", "note": "[Example 61, 2-(4-chlorophenyl)-1-{3-[4-(3-acetylaminophenyl)piperidin-1-yl]propyl}-6-carbamoyl-1H-benzimidazole]", "values": [
      {"measurement": "IC50", "value": 199, "unit": "nM"}
    ]}
  ]
}
